Tests used:
G-actin [1] = target: T1, G-actin (Oryctolagus cuniculus, UniProt P68135); experiment: Absorption spectra of MC state of probes attached to cysteine-374 on G-actin; format: physicochemical, Rabbit; design: Rabbit muscle G-actin was purified according to Marriott; from tissue; host or cells: rabbit muscle; details: probe attached to cysteine-374 of G-actin
Description: (§1) MATERIALS AND METHODS. Instrumentation. ^1H NMR spectra were measured on a Brucker Ac 300 MHz; mass spectra were carried out on a Micromass AutoSpec for EI, a Micromass LCT for ESI, or a Bruker REFLEX II for MALDI. Absorption spectra were recorded on a Hewlett-Packard 82152 diode array spectrophotometer or a Shimadzu 1601 PC instrument. Fluorescence spectroscopy was performed on an SLM-AB2 instrument (Thermoelectron, Madison, Wis.) or an ISS PC1 (Champaign, Ill.). Light-directed switching of the probes described in this work was achieved by irradiating the sample (120-1000 μL) with the 365 nm or 546 nm lines of a 100 W Hg-arc lamp (Zeiss).
Rabbit muscle G-actin was purified according to Marriott^14 in G-buffer (2 mM Tris, 0.2 mM CaCl2, and 0.2 mM ATP at pH 8.0). The concentration of G-actin was determined by absorption spectroscopy using an extinction coefficient of 3400 M^−1 cm^−1 at 290 nm^14. 1 ml of a 20 μM solution of G-actin was treated with 20 μL of a 10 mM DMF stock solution of each thiol reactive, spirobenzopyran probe. The reaction mixture was left in the dark for 2 hours at room temperature. The protein was centrifuged for 10 min at 2000 g at 4° and applied to a Bio-Rad PD-10 column equilibrated in G-buffer containing 1 mM DTT. […]
G-Actin: The reaction between a ten-fold molar excess of thiol reactive, spirobenzopyran reagents and 20 μM G-actin at 20° is complete within 2 hours. The concentration of spirobenzopyran in each conjugate is determined from the value of the absorption maximum of the SP form of G-actin conjugates using an extinction coefficient of 35,000 M^−1cm^−1 at 350 nm^15 (FIG. 5A) The absorption spectra of the MC and SP states are not affected by the labeling ratio (spirobenzopyran/G-actin, which varies from 0.6 to 0.8 within the different conjugates. Cysteine-374 is located at an important site on G-actin and has been implicated in several important interactions of actin that include protomer-contacts within F-actin^23, the binding of the actin filament capping proteins Gelsolin and CapG^24 and the motor protein, myosin II^25. […]

BSA = BSA (Bos taurus, UniProt P02769); experiment: Absorption spectra of MC probes attached to a cysteine residue on BSA; format: physicochemical; details: MC state, probe attached to a cysteine residue on BSA
Description: BSA: BSA conjugates of the spirobenzopyran reagents were prepared in a similar fashion to that described for G-actin yielding similar labeling ratios (FIG. 5C). The absorption spectrum of the five MC probes attached to a cysteine residue on BSA are centered at 544.5 nm (18,365 cm^−1) for compound 6,534 nm ([…]) for compound 12, 520 nm (19,231 cm^−1) for compounds 9; 503.5 nm (19,861 cm^−1) for compound 13. The difference in the energy of the absorption bands for these conjugates of 1496 cm^−1 is a little less than that found between the same probes on G-actin but again is significant in terms of the free energy of complex formation between BSA and its ligands. These confirm the conclusion that the protein matrix is made up of a complex dipolar landscape.

G-actin [2] = target: T1, G-actin; experiment: Fluorescence excitation and emission spectra of G-actin conjugates; format: physicochemical, Rabbit; design: Rabbit muscle G-actin was purified according to Marriott; from tissue; host or cells: rabbit muscle; details: for MC emission maximum of G-actin conjugate: excitation wavelength of 370 nm
From the text: FIG. 3. (A), Technical fluorescence excitation spectrum of the G-actin conjugate of compound 12, showing the S0-S2 (centered at 370 nm) and S0-S1 (centered at 558 nm) excitation bands of MC. The emission was monitored at an emission wavelength of 650 nm. (B), Normalized, technical emission spectra of G-actin conjugates of compounds: a), 3 (624 nm); b), 12 (622 nm); c), 6 (628 nm); d), 13 (630 nm). The emission from the MC state in each conjugate was generated using an excitation wavelength of […].
as §1
Further information on MC-solvent interactions can be derived from studying the fluorescence properties of MC. From a practical standpoint, fluorescence from ^1MC* is best studied by exciting the spirobenzopyran with mid-ultraviolet light (S0-S2 transition)—this condition maintains a uniform population of MC excited state molecules (see Jablonski diagram, FIG. 4A). Contrary to the ground state studies, the inventors find that the average energy of the MC fluorescence is insensitive to the solvent (water, 2-propanol, 1,2-propanediol and acetonitrile; data not shown) and to the location of MC probe on G-actin (FIG. 3B).

[3] = test system: fertilized xenopus oocytes; experiment: Cell division in microinjected fertilized xenopus oocytes; format: in vivo; details: microinjection at the 4 cell stage
Description: Light directed activation of constitutively active caged cofilin. Caged cofilin (constitutively active S3A) was prepared independently of Ghosh et al (2004) using our standard NVOC-Cl approach (Marriott, 1994) that is described above for caged CapG. […] Oocytes were microinjected with caged fluorescein dextran (Molecular Probes) and concentrated caged cofilin (5 mg/ml) at the 4 cell stage—we estimate that the intracellular concentration of cofilin is the two injected cells is between 30˜50 μM. Irradiation of all four cells in the embryo with 365 nm light for 2 seconds generated fluorescein and green fluorescence, and by implication cofilin, from their caged precursors in the two injected cells. […] We conclude from these studies that the increased concentration of cofilin generated by uncaging inhibits actin filament dynamics and cytokinesis (Bamburg, 1999).

F-actin = target: T2, F-actin (Oryctolagus cuniculus, UniProt P68135); experiment: Prodan-F-actin depolymerization kinetics after dilution; format: biochemical; details: Prodan actin emission ratio 465/502 nm, dilution below the critical concentration
T2 construct: Rabbit muscle G-actin is purified according to Marriott (1994); from tissue; host or cells: rabbit muscle

[4] = G-actin conjugate, emission monitored at 650 nm

Sequence of BSA (P02769 25-607): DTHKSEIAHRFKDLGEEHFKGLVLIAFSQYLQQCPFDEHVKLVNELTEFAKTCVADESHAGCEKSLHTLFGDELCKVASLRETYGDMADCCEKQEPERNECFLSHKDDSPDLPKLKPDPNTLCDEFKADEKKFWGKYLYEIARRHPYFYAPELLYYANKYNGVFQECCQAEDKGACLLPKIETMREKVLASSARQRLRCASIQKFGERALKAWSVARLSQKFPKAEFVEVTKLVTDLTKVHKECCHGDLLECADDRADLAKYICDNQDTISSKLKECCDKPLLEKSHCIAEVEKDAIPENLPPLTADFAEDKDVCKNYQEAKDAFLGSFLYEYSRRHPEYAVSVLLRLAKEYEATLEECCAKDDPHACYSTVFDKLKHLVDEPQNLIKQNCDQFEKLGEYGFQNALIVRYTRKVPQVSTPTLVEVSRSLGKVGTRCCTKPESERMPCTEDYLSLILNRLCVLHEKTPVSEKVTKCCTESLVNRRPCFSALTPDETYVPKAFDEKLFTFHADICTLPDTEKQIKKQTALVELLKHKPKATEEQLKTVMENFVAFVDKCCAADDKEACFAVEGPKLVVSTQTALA

| Molecule | MC absorption maximum on G-actin (G-actin [1]) | MC absorption spectrum centre on BSA (BSA) | MC emission maximum of G-actin conjugate (G-actin [2]) | effect on cell division / cytokinesis [3] | effect on rate of F-actin depolymerization (F-actin) | also measured |
| --- | --- | --- | --- | --- | --- | --- |
| wild type cofilin: wild type cofilin, inactivated by phosphorylation at Ser-3 |  |  |  | no effect on cell division |  |  |
| Constitutively active cofilin: constitutively active S3A cofilin (protein, UniProt P23528 2-166, looked up, variant S3A) Cofilin-1: AAGVAVSDGVIKVFNDMKVRKSSTPEEVKKRKKAVLFCLSEDKKNIILEEGKEILVGDVGQTVDDPYATFVKMLPDKDCRYALYDATYETKESKKEDLVFIFWAPESAPLKSKMIYASSKDAIKKKLTGIKHELQANCYEEVKDRCTLAEKLGGSAVISLEGKPL |  |  |  | inhibited cytokinesis | increases the rate of F-actin depolymerization |  |
| Uncaged cofilin: caged cofilin after light-directed uncaging (protein, UniProt P23528 2-166, looked up, variant S3A, uncaged after photolysis, caged cofilin after light-directed uncaging) Cofilin-1: AAGVAVSDGVIKVFNDMKVRKSSTPEEVKKRKKAVLFCLSEDKKNIILEEGKEILVGDVGQTVDDPYATFVKMLPDKDCRYALYDATYETKESKKEDLVFIFWAPESAPLKSKMIYASSKDAIKKKLTGIKHELQANCYEEVKDRCTLAEKLGGSAVISLEGKPL |  |  |  |  | restores a substantial fraction of the cofilin activity |  |
| caged cofilin: constitutively active S3A cofilin caged with 3-5 NVOC groups by the NVOC-Cl approach (protein, UniProt P23528 2-166, looked up, variant S3A, caged with 3-5 NVOC groups) Cofilin-1: AAGVAVSDGVIKVFNDMKVRKSSTPEEVKKRKKAVLFCLSEDKKNIILEEGKEILVGDVGQTVDDPYATFVKMLPDKDCRYALYDATYETKESKKEDLVFIFWAPESAPLKSKMIYASSKDAIKKKLTGIKHELQANCYEEVKDRCTLAEKLGGSAVISLEGKPL |  |  |  | failed to undergo further divisions | did not accelerate the rate of F-actin depolymerization | effect on cell division / cytokinesis ([3]; listed as caged constitutively active cofilin): inhibits cytokinesis |

Further lines, with some results ahead:

| MC absorption maximum on G-actin (G-actin [1]) | MC absorption spectrum centre on BSA (BSA) | MC emission maximum of G-actin conjugate (G-actin [2]) | Molecule | effect on cell division / cytokinesis [3] | effect on rate of F-actin depolymerization (F-actin) | also measured |
| --- | --- | --- | --- | --- | --- | --- |
| 500 nm | 520 nm |  | 4′-(Bromomethyl)spirobenzopyran [compound 9] |  |  |  |
| 551.5 nm | 503.5 nm | 630 nm | 6′-(Bromomethyl)spirobenzopyran [compound 13] |  |  |  |
| 551.5 nm |  | 622 nm | 6′-(Maleimidomethyl)spirobenzopyran [compound 12] |  |  | S0-S1 excitation band of MC, centre (G-actin [2]; [4]): 558 nm; S0-S2 excitation band of MC, centre (G-actin [2]; [4]): 370 nm |
|  |  | 624 nm | 8-(Iodomethyl)spirobenzopyran [compound 3] |  |  |  |
|  | 544.5 nm | 628 nm | CC1(C)c2ccccc2N(CCN2C(=O)C=CC2=O)C12C=Cc1cc([N+](=O)[O-])ccc1O2 (stereo not shown) [compound 6, 1′-(Maleimidoethyl)spirobenzopyran] |  |  |  |

Reference: patent US20090280060A1, “PHOTOCHROMIC PROBES” (priority 2004, published 2009)
